The values that follow are results of earlier work, collected in PMC5085262 (Chemical Science, 2016).

For the series the following is noted: no reference given.

For the compound `Oc1cccc2cccnc12` [Quin, 8-hydroxyquinoline], the “pKa of the free ligand (phenolate group)” value was “≈ 9.9”.
